Test results reported in patent US11938139B2, “Pharmaceutical compositions and methods for anxiety, depression and other psychiatric disorders” (LA PharmaTech Inc., priority 2019, dated 2024).

Columns and labels:
Assay type in all cases: in vivo, human
[1] = test system: patient with major depressive disorder and agitation; assay: Clinical case, Example 3: patient; conditions: person; disorder for about 2 years; fluoxetine alone, alprazolam 2.0 mg/daily alone
Description: (§1) The inventors believe the hypothesis as explained in example 1 above is applicable here as well. In this case, the composition of two mechanisms of action for two different classes of diseases provided a new solution for treating […] major depressive disorder and agitation which could not be treated with other options, such traditional SSRIs, NSRIs, benzodiazepines, and the like alone.

[2] = test system: patient with generalized anxiety disorder, panic disorder, and agitation; assay: Clinical case, Example 1: patient; conditions: person; fluoxetine alone 4 months, sertraline alone 6 months, alprazolam 2.0 mg/daily alone 4 months
Description: A patient had generalized anxiety disorder, panic disorder, and agitation. […] Because azelastine is approved for the treatment of allergic rhinitis and asthma and has never been used to treat patients with depression or anxiety, this dramatic clinical outcome from this composition is unexpected. […] This way of activating the GABA system may interact more effectively with other neurotransmitter systems, including noradrenergic, serotonergic, cholinergic, and opioidergic systems. […] This composition of two mechanisms of action for two different classes of diseases provided a new solution for treating psychiatric diseases which are incurable by other options, such traditional SSRIs, NSRIs, benzodiazepines, and the like alone.

[3] = test system: patient with generalized anxiety disorder, agitation and insomnia; assay: Clinical case, Example 2: patient; conditions: person; disorder for 8 months; alprazolam 2.0 mg/daily alone
Description: as §1, with “generalized anxiety diseases” for “major depressive disorder”, “agitation along with insomnia” for “agitation”

| SMILES | effectiveness of earlier treatment alone [1] | clinical improvement with single-agent treatment [2] | effectiveness of earlier treatment alone [3] |
| --- | --- | --- | --- |
| CNCCC(Oc1ccc(C(F)(F)F)cc1)c1ccccc1 (stereo not drawn) [fluoxetine] | no treatment, including fluoxetine alone from SSRIs or alprazolam (2.0 mg/daily) alone from benzodiazepines, had been effective | no significant clinical improvement |  |
| CN[C@H]1CC[C@@H](c2ccc(Cl)c(Cl)c2)c2ccccc21 [sertraline] |  | no significant clinical improvement |  |
| Cc1nnc2n1-c1ccc(Cl)cc1C(c1ccccc1)=NC2 [alprazolam, 8-Chloro-1-methyl-6-phenyl-4H-s-triazolo(4,3-a)(1,4)benzodiazepine] | no treatment, including fluoxetine alone from SSRIs or alprazolam (2.0 mg/daily) alone from benzodiazepines, had been effective | no significant clinical improvement | no treatment had been effective |
